According to ChEMBL document CHEMBL1138627, “1-Methyl and 1-(2-hydroxyalkyl)-5-(3-alkyl/cycloalkyl/phenyl/naphthylureido)-1H-pyrazole-4-carboxylic acid ethyl esters as potent human neutrophil chemotaxis inhibitors” (Bioorg Med Chem, 2009):

Key:
[1] = Cytotoxicity against human neutrophils assessed as LDH release; type: cell-based; design: concentration or dose not given beside the values; settings: neutrophil
[2] = test system: Neutrophil; experiment: Reduction of chemotaxis in human neutrophils assessed as inhibition of IL8-induced cell migration pretreated 10 mins before IL8 challenge; type: functional, cell-based
[3] = test system: Neutrophil; experiment: Reduction of chemotaxis in human neutrophils assessed as inhibition of fMLP-OMe-induced cell migration pretreated 10 mins before fMLP-OMe challenge; type: functional, cell-based
[4] = test system: Mus musculus; experiment: Antiinflammatory activity against zymosan-induced peritonitis in Swiss mouse assessed as inhibition of granulocyte infiltration into peritoneal cavity at 100 mg/kg, po administered 1 hr before zymosan challenge measured after 4 hrs; type: functional
[5] = test system: Neutrophil; experiment: Inhibition of chemotaxis in human neutrophils assessed as reduction of fMLP-OMe-induced cell migration at 10 uM relative to control; type: functional
[6] = test system: Mus musculus; experiment: Antiinflammatory activity against zymosan-induced peritonitis in Swiss mouse assessed as granulocyte content in peritoneal cavity lavage at 3 mg/kg, po administered 1 hr before zymosan challenge measured after 4 hrs; type: functional
[7] = test system: Mus musculus; experiment: Antiinflammatory activity against zymosan-induced peritonitis in Swiss mouse assessed as peritoneal protein concentration at 3 mg/kg, po administered 1 hr before zymosan challenge by spectrophotometry; type: functional
[8] = test system: Mus musculus; experiment: Antiinflammatory activity against zymosan-induced peritonitis in Swiss mouse assessed as monocyte and lymphocyte content in peritoneal cavity lavage at 3 mg/kg, po administered 1 hr before zymosan challenge measured after 4 hrs; type: functional
[9] = test system: Mus musculus; experiment: Antiinflammatory activity against zymosan-induced peritonitis in Swiss mouse assessed as inhibition of granulocyte infiltration into peritoneal cavity at 3 mg/kg, po administered 1 hr before zymosan challenge measured after 4 hrs; type: functional; design: scale not given: the % may be the effect or the level left
[10] = test system: Mus musculus; experiment: Antiinflammatory activity against zymosan-induced peritonitis in Swiss mouse assessed as inhibition of granulocyte infiltration into peritoneal cavity at 50 mg/kg, po administered 1 hr before zymosan challenge measured after 4 hrs; type: functional; design: scale not given: the % may be the effect or the level left
[11] = test system: Mus musculus; experiment: Antiinflammatory activity against zymosan-induced peritonitis in Swiss mouse assessed as protein concentration at 50 mg/kg, po administered 1 hr before zymosan challenge by spectrophotometry; type: functional
[12] = test system: Mus musculus; experiment: Antiinflammatory activity against zymosan-induced peritonitis in Swiss mouse assessed as monocyte and lymphocyte content in peritoneal cavity at 50 mg/kg, po administered 1 hr before zymosan challenge measured after 4 hrs; type: functional

Q: Which Activity [1] does the source give for `CCOC(=O)c1cnn(CC(O)CC)c1NC(=O)Nc1cccc2ccccc12` (stereo not drawn) here?
A: < 3%

Q: What about the IC50 [2] of the same molecule?
A: 9600 pM

Q: And the IC50 ([3]; read-out: IC50)?
A: 12 nM

Q: Which inhibition in vivo at 100 mg/kg [4] does the source give for `CCOC(=O)c1cnn(CC(O)c2ccccc2)c1NC(=O)Nc1cccc(F)c1` (stereo not drawn) here?
A: 33%

Q: Which Activity [1] does the source give for `CCOC(=O)c1cnn(CC(O)CC)c1NC(=O)N1CCN(Cc2ccccc2)CC1` (stereo not drawn) here?
A: < 3%

Q: And the IC50 [2]?
A: 0.08 pM

Q: And the IC50 ([3]; read-out: IC50)?
A: 2000 nM

Q: Which results are given for `CCCC(O)Cn1ncc(C(=O)OCC)c1NC(=O)NC(C)C` (stereo not drawn)?
A: Activity [1]: < 3%; IC50 [2]: 1000 pM; IC50 ([3]; read-out: IC50): 20 nM

Q: With `CCOC(=O)c1cnn(CC(C)O)c1NC(=O)N1CCN(Cc2ccccc2)CC1` (stereo not drawn) as the molecule, how does the Activity [1] read?
A: < 3%

Q: What about the inhibition at 10 µM [5] of the same molecule?
A: 63%

Q: And the IC50 [2]?
A: 0.99 pM

Q: And the IC50 ([3]; read-out: IC50)?
A: > 10 nM

Q: Which Activity [1] does the source give for `CCOC(=O)c1cnn(CC(O)CC)c1NC(=O)Nc1ccccc1F` (stereo not drawn) here?
A: < 3%

Q: What about the IC50 ([3]; read-out: IC50) of the same molecule?
A: 120 nM

Q: For `CCCC(O)Cn1ncc(C(=O)OCC)c1NC(=O)NCc1ccccc1` (stereo not drawn), which Activity [1] is on record?
A: < 3%

Q: What about the IC50 ([3]; read-out: IC50) of the same molecule?
A: 0.43 nM

Q: Which results are given for `CCOC(=O)c1cnn(CC(O)CC)c1NC(=O)Nc1cccc(F)c1` (stereo not drawn)?
A: Activity [1]: < 3%; IC50 [2]: 360 pM; IC50 ([3]; read-out: IC50): 0.19 nM

Q: For `CCOC(=O)c1cnn(CC(O)c2ccccc2)c1NC(=O)N1CCN(Cc2ccccc2)CC1` (stereo not drawn), which IC50 [2] is on record?
A: 14000 pM

Q: Which Activity [1] does the source give for `CCOC(=O)c1cnn(CC(O)CC)c1NC(=O)Nc1ccc(F)cc1` (stereo not drawn) here?
A: < 3%

Q: And the IC50 [2]?
A: 1900 pM

Q: What about the IC50 ([3]; read-out: IC50) of the same molecule?
A: 3.2 nM

Q: Which Activity [1] does the source give for `CCCC(O)Cn1ncc(C(=O)OCC)c1NC(=O)N1CCN(Cc2ccccc2)CC1` (stereo not drawn) here?
A: < 3%

Q: What about the IC50 [2] of the same molecule?
A: 90 pM

Q: What about the IC50 ([3]; read-out: IC50) of the same molecule?
A: 1.1 nM

Q: What does the source list for `CCOC(=O)c1cnn(C)c1NC(=O)NC(C)C`?
A: Activity [1]: < 3%; IC50 [2]: 1.8 pM; IC50 ([3]; read-out: IC50): 77 nM

Q: For `CCOC(=O)c1cnn(C)c1NC(=O)NCc1ccccc1`, which Activity [1] is on record?
A: < 3%

Q: And the IC50 [2]?
A: 1300 pM

Q: And the IC50 ([3]; read-out: IC50)?
A: 18 nM

Q: Which Activity [1] does the source give for `CCOC(=O)c1cnn(CC(O)c2ccccc2)c1NC(=O)Nc1cccc2ccccc12` (stereo not drawn) here?
A: < 3%

Q: And the IC50 ([3]; read-out: IC50)?
A: 7.8 nM

Q: With `CCOC(=O)c1cnn(CC(O)CC)c1NC(=O)NC(C)C` (stereo not drawn) as the molecule, how does the Activity [1] read?
A: < 3%

Q: And the inhibition at 10 µM [5]?
A: 52%

Q: And the IC50 ([3]; read-out: IC50)?
A: > 10 nM

Q: Which Activity [1] does the source give for `CCOC(=O)c1cnn(CC(C)O)c1NC(=O)NCc1ccccc1` (stereo not drawn) here?
A: < 3%

Q: What about the IC50 [2] of the same molecule?
A: 0.54 pM

Q: What about the IC50 ([3]; read-out: IC50) of the same molecule?
A: 15 nM

Q: Which IC50 [3] does the source give for `C/C=C/C[C@@H](C)[C@@H](O)[C@H]1C(=O)N[C@@H](CC)C(=O)N(C)CC(=O)N(C)[C@@H](CC(C)C)C(=O)N[C@@H](C(C)C)C(=O)N(C)[C@@H](CC(C)C)C(=O)N[C@@H](C)C(=O)N[C@H](C)C(=O)N(C)[C@@H](CC(C)C)C(=O)N(C)[C@@H](CC(C)C)C(=O)N(C)[C@@H](C(C)C)C(=O)N1C` [CYCLOSPORINE] here?
A: 0.047 nM

Q: Which results are given for `CCOC(=O)c1cnn(CC(C)O)c1NC(=O)Nc1cccc2ccccc12` (stereo not drawn)?
A: Activity [1]: < 3%; IC50 [2]: 0.97 pM; IC50 ([3]; read-out: IC50): 9.8 nM

Q: For `CCOC(=O)c1cnn(CC(O)c2ccccc2)c1NC(=O)NC(C)C` (stereo not drawn), which IC50 [2] is on record?
A: 55000 pM

Q: For `C[C@@H]1C[C@H]2[C@@H]3CCC4=CC(=O)C=C[C@]4(C)[C@@]3(F)[C@@H](O)C[C@]2(C)[C@@]1(O)C(=O)CO` [DEXAMETHASONE], which Activity [6] is on record?
A: 81%

Q: What about the protein concentration [7] of the same molecule?
A: 1.75 µg/mL

Q: And the Activity [8]?
A: 20%

Q: What about the Activity [9] of the same molecule?
A: 35%

Q: With `CCOC(=O)c1cnn(CC(C)O)c1NC(=O)Nc1ccccc1F` (stereo not drawn) as the molecule, how does the Activity [10] read?
A: 34%

Q: And the Activity [1]?
A: < 3%

Q: And the IC50 [2]?
A: 0.55 pM

Q: And the IC50 ([3]; read-out: IC50)?
A: 100 nM

Q: What about the protein concentration [11] of the same molecule?
A: 2.62 µg/mL

Q: Which results are given for `CCOC(=O)c1cnn(CC(C)O)c1NC(=O)NC(C)C` (stereo not drawn)?
A: Activity [1]: < 3%; IC50 [2]: 0.82 pM; IC50 ([3]; read-out: IC50): 90 nM

Q: With `CCOC(=O)c1cnn(CC(C)O)c1NC(=O)Nc1cccc(F)c1` (stereo not drawn) as the molecule, how does the Activity [10] read?
A: 21%

Q: What about the Activity [12] of the same molecule?
A: 23%

Q: And the Activity [1]?
A: < 3%

Q: And the inhibition at 10 µM [5]?
A: 60%

Q: And the IC50 [2]?
A: 0.7 pM

Q: What about the IC50 ([3]; read-out: IC50) of the same molecule?
A: > 10 nM

Q: And the Activity [11]?
A: 2.68%

Q: Which results are given for `CCOC(=O)c1cnn(CC(C)O)c1NC(=O)Nc1ccc(F)cc1` (stereo not drawn)?
A: Activity [1]: < 3%; inhibition at 10 µM [5]: 55%; IC50 [2]: 200 pM; IC50 ([3]; read-out: IC50): > 10 nM

Q: With `CCOC(=O)c1cnn(CC(O)c2ccccc2)c1NC(=O)Nc1ccccc1` (stereo not drawn) as the molecule, how does the IC50 [2] read?
A: 45000 pM

Q: For `CCOC(=O)c1cnn(CC(O)c2ccccc2)c1NC(=O)NCc1ccccc1` (stereo not drawn), which IC50 [2] is on record?
A: 10000 pM

Q: Which Activity [1] does the source give for `CCOC(=O)c1cnn(CC(O)CC)c1NC(=O)NCc1ccccc1` (stereo not drawn) here?
A: < 3%

Q: What about the inhibition at 10 µM [5] of the same molecule?
A: 54%

Q: And the IC50 ([3]; read-out: IC50)?
A: > 10 nM

Q: What does the source list for `CCOC(=O)c1cnn(C)c1NC(=O)N1CCN(Cc2ccccc2)CC1`?
A: Activity [1]: < 3%; IC50 [2]: 54.6 pM; IC50 ([3]; read-out: IC50): 150 nM
